Measurements reported in ChEMBL document CHEMBL1134059, “Synthesis and antifungal activities of novel 1,3-beta-D-glucan synthase inhibitors. Part 2” (Bioorg Med Chem Lett, 2001).
pIC50: −log10 of the molar value. ≈ marks a conversion by molar mass, not a printed value.

How the values were obtained:
Beta-1,3-glucan synthase = Beta-1,3-glucan synthase (Candida albicans, UniProt O13428); experiment: In vitro inhibitory activity against Beta glucan synthase
Candida albicans [1] = experiment: In vitro antifungal activity against Candida albicans CY1002; format: functional, organism-based
Candida albicans [2] = experiment: Antifungal activity against Candida albicans ATCC 48130; format: functional
Nakaseomyces glabratus = experiment: Antifungal activity against Candida glabrata ATCC 2001; format: functional
Mus musculus [3] = experiment: In vivo efficacy against Candida albicans CY1002 5E6 cells for systemic candidiasis in mice after iv treatment on day 7; format: functional; conditions: CY1002 5E6, iv, 168 h
Mus musculus [4] = experiment: In vivo efficacy against Aspergillus fumigatus CF1083 1E4 conidia/g for pulmonary aspergillosis in mice after iv treatment on day 14; format: functional; conditions: 336 h
Lomentospora prolificans = experiment: Antifungal activity against Scedosporium prolificans ATCC 20054; format: functional
Candida tropicalis = experiment: Antifungal activity against Candida tropicalis ATCC 13803; format: functional
Mus musculus [5] = organism: Mus musculus; experiment: Hepatotoxicity using inclusion-body formation test in hepatocytes of mice; format: functional, Hepatocyte
Pichia kudriavzevii = experiment: Antifungal activity against Candida krusei ATCC 20579; format: functional
Candida albicans [6] = experiment: Antifungal activity against Candida albicans KB fluconazole resistant strain.; format: functional
Scedosporium boydii = experiment: Antifungal activity against Scedosporium […] IFM40731N.; format: functional
Aspergillus fumigatus = experiment: Antifungal activity against Aspergillus fumigatus MTU06002; format: functional
Candida albicans [7] = experiment: In vitro antifungal activity against Candida albicans CY1002 using 80 percent serum; format: functional, organism-based

Sequence of Beta-1,3-glucan synthase (O13428 whole entry): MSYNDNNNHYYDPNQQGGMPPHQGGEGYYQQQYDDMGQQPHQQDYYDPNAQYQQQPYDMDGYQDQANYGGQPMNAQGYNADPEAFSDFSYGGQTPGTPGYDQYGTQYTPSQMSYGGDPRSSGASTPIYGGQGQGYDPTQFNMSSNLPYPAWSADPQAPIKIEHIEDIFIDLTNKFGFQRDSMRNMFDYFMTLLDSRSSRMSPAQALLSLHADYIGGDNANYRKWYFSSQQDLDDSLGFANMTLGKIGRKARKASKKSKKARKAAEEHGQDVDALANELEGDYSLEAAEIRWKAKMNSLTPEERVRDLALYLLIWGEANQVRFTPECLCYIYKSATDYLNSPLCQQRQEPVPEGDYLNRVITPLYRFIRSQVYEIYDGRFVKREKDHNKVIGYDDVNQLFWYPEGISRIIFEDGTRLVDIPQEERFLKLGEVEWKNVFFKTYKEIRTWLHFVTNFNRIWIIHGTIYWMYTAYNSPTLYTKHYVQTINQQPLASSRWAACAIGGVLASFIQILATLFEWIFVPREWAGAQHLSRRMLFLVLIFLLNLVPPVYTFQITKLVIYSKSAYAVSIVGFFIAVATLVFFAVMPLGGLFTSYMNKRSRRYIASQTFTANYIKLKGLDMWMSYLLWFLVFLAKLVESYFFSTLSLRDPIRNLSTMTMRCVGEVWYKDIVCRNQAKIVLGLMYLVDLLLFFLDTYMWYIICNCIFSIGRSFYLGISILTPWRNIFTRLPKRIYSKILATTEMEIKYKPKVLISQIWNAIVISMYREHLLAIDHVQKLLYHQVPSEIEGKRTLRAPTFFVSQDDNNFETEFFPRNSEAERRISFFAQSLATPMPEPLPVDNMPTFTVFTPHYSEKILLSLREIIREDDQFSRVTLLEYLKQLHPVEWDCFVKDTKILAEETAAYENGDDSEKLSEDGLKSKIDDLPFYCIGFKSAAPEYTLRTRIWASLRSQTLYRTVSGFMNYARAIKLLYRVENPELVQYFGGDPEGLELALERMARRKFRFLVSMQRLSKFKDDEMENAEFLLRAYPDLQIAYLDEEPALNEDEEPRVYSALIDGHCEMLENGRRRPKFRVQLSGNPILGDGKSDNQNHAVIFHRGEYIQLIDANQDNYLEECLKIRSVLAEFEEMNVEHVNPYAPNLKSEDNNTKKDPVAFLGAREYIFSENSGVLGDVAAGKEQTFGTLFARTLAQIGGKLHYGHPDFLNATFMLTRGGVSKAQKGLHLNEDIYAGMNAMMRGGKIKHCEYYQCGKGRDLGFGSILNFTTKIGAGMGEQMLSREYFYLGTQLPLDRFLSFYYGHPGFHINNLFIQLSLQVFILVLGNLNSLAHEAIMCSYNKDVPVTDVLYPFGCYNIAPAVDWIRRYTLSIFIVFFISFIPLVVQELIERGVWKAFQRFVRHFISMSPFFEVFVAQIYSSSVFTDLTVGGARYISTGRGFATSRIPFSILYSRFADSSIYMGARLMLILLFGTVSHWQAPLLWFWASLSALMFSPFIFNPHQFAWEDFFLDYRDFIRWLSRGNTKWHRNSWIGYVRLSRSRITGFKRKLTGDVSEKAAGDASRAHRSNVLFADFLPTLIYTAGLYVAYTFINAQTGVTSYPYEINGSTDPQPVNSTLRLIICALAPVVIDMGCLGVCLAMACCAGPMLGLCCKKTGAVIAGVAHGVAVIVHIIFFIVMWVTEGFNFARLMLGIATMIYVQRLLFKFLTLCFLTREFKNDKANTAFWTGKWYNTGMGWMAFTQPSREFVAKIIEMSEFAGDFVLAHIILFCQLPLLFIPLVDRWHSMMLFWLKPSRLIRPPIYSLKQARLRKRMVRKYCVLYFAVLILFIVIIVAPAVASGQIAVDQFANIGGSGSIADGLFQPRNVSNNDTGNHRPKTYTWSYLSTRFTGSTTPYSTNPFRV

Structure (SMILES)	pIC50 (Beta-1,3-glucan synthase)	IC50 (Candida albicans [1])	MIC (Candida albicans [2])	MIC (Nakaseomyces glabratus)	ED50 (Mus musculus [3])	ED50 (Mus musculus [4])	MIC (Lomentospora prolificans)	MIC (Candida tropicalis)	Observed at (Mus musculus [5])	MIC (Pichia kudriavzevii)	MIC (Candida albicans [6])	MIC (Scedosporium boydii)	MIC (Aspergillus fumigatus)	IC50 (Candida albicans [7])
CC[C@H](C)C[C@H](C)CCCCCCCCC(=O)N[C@H]1C[C@@H](O)[C@@H](NCCN)NC(=O)[C@@H]2[C@@H](O)CCN2C(=O)[C@H]([C@H](O)CCN)NC(=O)[C@H]([C@H](O)[C@@H](O)c2ccc(O)cc2)NC(=O)[C@@H]2C[C@@H](O)CN2C(=O)[C@H]([C@@H](C)O)NC1=O	8.89	–	–	–	–	–	–	–	–	–	–	–	–	–
CCCCCCCCCCCCC[C@@H]1CC(=O)N[C@@H]([C@@H](C)O)C(=O)N[C@H](C)C(=O)N[C@@H](Cc2ccc(O)cc2)C(=O)N[C@@H](C(C)C)C(=O)N2C[C@H](O)C[C@H]2C(=O)N[C@@H]([C@@H](C)O)C(=O)N[C@@H]([C@@H](C)O)C(=O)N2CC[C@H](O)[C@H]2C(=O)N[C@@H]([C@H](O)CC(N)=O)C(=O)NCC(=O)N[C@@H]([C@@H](C)O)C(=O)N[C@@H](CCCN(CCN)C(=O)[C@H](CCCN)N(CCN)CCN)C(=O)O1	9.70	0.31 µg/mL (≈ 0.174 µM)	0.37 µg/mL (≈ 0.208 µM)	1.3 µg/mL (≈ 0.732 µM)	0.08 mg/kg	5.2 mg/kg	2.2 µg/mL (≈ 1.24 µM)	0.62 µg/mL (≈ 0.349 µM)	100 µg/mL	0.28 µg/mL (≈ 0.158 µM)	0.35 µg/mL (≈ 0.197 µM)	0.35 µg/mL (≈ 0.197 µM)	0.34 µg/mL (≈ 0.191 µM)	0.24 µg/mL (≈ 0.135 µM)
CCCCCCCCCCCCC[C@@H]1CC(=O)N[C@@H]([C@@H](C)O)C(=O)N[C@H](C)C(=O)N[C@@H](Cc2ccc(O)cc2)C(=O)N[C@@H](C(C)C)C(=O)N2C[C@H](O)C[C@H]2C(=O)N[C@@H]([C@@H](C)O)C(=O)N[C@@H]([C@@H](C)O)C(=O)N2CC[C@H](O)[C@H]2C(=O)N[C@@H]([C@H](O)CC(N)=O)C(=O)NCC(=O)N[C@@H]([C@@H](C)O)C(=O)N[C@@H](CCCN(CCCN)C(=O)[C@H](N)CCCN)C(=O)O1	9.08	0.37 µg/mL (≈ 0.217 µM)	–	–	0.05 mg/kg	5.2 mg/kg	–	–	30 µg/mL	–	–	–	–	0.27 µg/mL (≈ 0.158 µM)
CCCCCCCCCCCCC[C@@H]1CC(=O)N[C@@H]([C@@H](C)O)C(=O)N[C@H](C)C(=O)N[C@@H](Cc2ccc(O)cc2)C(=O)N[C@@H](C(C)C)C(=O)N2C[C@H](O)C[C@H]2C(=O)N[C@@H]([C@@H](C)O)C(=O)N[C@@H]([C@@H](C)O)C(=O)N2CC[C@H](O)[C@H]2C(=O)N[C@@H]([C@H](O)CC(N)=O)C(=O)NCC(=O)N[C@@H]([C@@H](C)O)C(=O)N[C@@H](CCCN(CCCN)C(=O)[C@@H](N)CCCN)C(=O)O1	9.05	0.47 µg/mL (≈ 0.276 µM)	–	–	0.07 mg/kg	8.7 mg/kg	–	–	30 µg/mL	–	–	–	–	0.27 µg/mL (≈ 0.158 µM)
CCCCCCCCCCCCC[C@@H]1CC(=O)N[C@@H]([C@@H](C)O)C(=O)N[C@H](C)C(=O)N[C@@H](Cc2ccc(O)cc2)C(=O)N[C@@H](C(C)C)C(=O)N2C[C@H](O)C[C@H]2C(=O)N[C@@H]([C@@H](C)O)C(=O)N[C@@H]([C@@H](C)O)C(=O)N2CC[C@H](O)[C@H]2C(=O)N[C@@H]([C@H](O)CC(N)=O)C(=O)NCC(=O)N[C@@H]([C@@H](C)O)C(=O)N[C@@H](CCCNC(=O)[C@@H](CCCN)N(CCN)CCN)C(=O)O1	9.20	0.31 µg/mL (≈ 0.179 µM)	0.31 µg/mL (≈ 0.179 µM)	1.4 µg/mL (≈ 0.807 µM)	0.13 mg/kg	11.6 mg/kg	–	0.35 µg/mL (≈ 0.202 µM)	30 µg/mL	0.54 µg/mL (≈ 0.311 µM)	0.68 µg/mL (≈ 0.392 µM)	–	0.67 µg/mL (≈ 0.386 µM)	0.31 µg/mL (≈ 0.179 µM)
CCCCCCCCCCCCC[C@@H]1CC(=O)N[C@@H]([C@@H](C)O)C(=O)N[C@H](C)C(=O)N[C@@H](Cc2ccc(O)cc2)C(=O)N[C@@H](C(C)C)C(=O)N2C[C@H](O)C[C@H]2C(=O)N[C@@H]([C@@H](C)O)C(=O)N[C@@H]([C@@H](C)O)C(=O)N2CC[C@H](O)[C@H]2C(=O)N[C@@H]([C@H](O)CC(N)=O)C(=O)NCC(=O)N[C@@H]([C@@H](C)O)C(=O)N[C@@H](CCCNC(=O)[C@H](CCCN)N(CCN)CCN)C(=O)O1	9.05	0.37 µg/mL (≈ 0.213 µM)	–	–	0.33 mg/kg	8.7 mg/kg	–	–	100 µg/mL	–	–	–	–	0.55 µg/mL (≈ 0.317 µM)
CCCCCCCCCCCCC[C@@H]1CC(=O)N[C@H]([C@@H](C)O)C(=O)N[C@H](C)C(=O)N[C@@H](Cc2ccc(O)cc2)C(=O)N[C@@H](C(C)C)C(=O)N2C[C@H](O)C[C@H]2C(=O)N[C@H]([C@@H](C)O)C(=O)N[C@@H]([C@@H](C)O)C(=O)N2CC[C@H](O)[C@H]2C(=O)N[C@@H]([C@H](O)CC(N)=O)C(=O)NCC(=O)N[C@H]([C@@H](C)O)C(=O)N[C@@H](CCCN(CCCN)C(=O)[C@@H](CCCN)N(CCN)CCN)C(=O)O1	9.60	0.39 µg/mL (≈ 0.218 µM)	0.37 µg/mL (≈ 0.207 µM)	1.2 µg/mL (≈ 0.67 µM)	0.12 mg/kg	5.8 mg/kg	0.37 µg/mL (≈ 0.207 µM)	0.56 µg/mL (≈ 0.313 µM)	100 µg/mL	0.28 µg/mL (≈ 0.156 µM)	0.31 µg/mL (≈ 0.173 µM)	0.37 µg/mL (≈ 0.207 µM)	0.58 µg/mL (≈ 0.324 µM)	0.26 µg/mL (≈ 0.145 µM)
